From patent publication US5696083A, “Personal care composition containing pyrithione and polymyxin” (Olin Corporation, priority 1994, dated 1997)

Key:
Experiment in all cases: MIC in Tryptic Soy Broth, compounds alone and in mixtures
Format in all cases: cell-based
[1] = test system: Fusarium sp.; conditions: 28° C.
From the text: (§1) ^a Compounds were serially diluted in Tryptic soy Broth (DIFCO),
(§2) ^b Each dilution contained 10^6 bacteria/ml of 10^5 fungi/ml.
(§3) ^a Stock solutions of ZP in dimethylsulfoxide and PB in sterile water

[2] = test system: Fusarium solani; conditions: 28° C.; for Minimum Inhibitory Concentration, Compound Used Alone: Tryptic Soy Broth
Method: (§4) Determinations of minimum inhibitory concentrations (MIC's) of the two compounds (pyrithione salts and/or polymyxin sulfate) in a nutrient broth (alone and in mixtures) were conducted to evaluate interactions. Stock solutions of pyrithione salts and/or polymyxin salts were diluted in Tryptic Soy Broth (Difco), and the dilutions were inoculated with an equal volume of bacterial culture (10^6 /ml) or fungal spore suspension (10^5 /ml) in Tryptic Soy Broth and incubated at 28° C. for 3-7 days.
(§5) The interactions of the antimicrobials were determined according to accepted procedures (M. C. Berenbaum [Tables 1 and 2] and P. F. Dougherty "Microdilution Transfer Plate Technique for Determining In Vitro Synergy of Antimicrobial Agents", ANTIMICROBIAL AGENTS AND CHEMOTHERAPY, Vol. 11, No. 2, p. 225-228 (Feb. 1977, American Society for Microbiology) [Tables 3 and 4]). The concentration of each agent in the combination that inhibits the organisms is expressed as a fraction of the concentration that causes the same effect when the same agent is tested alone (i.e., its fractional inhibitory concentration, FIC). If the sum of the FIC's is 1, the combination is additive in its antimicrobial effect; if the sum is <1, the combination is synergistic; and if the sum is >1, the combination is antagonistic.
as §1, §2, §3

[3] = test system: Aspergillus niger; conditions: 28° C.; for Minimum Inhibitory Concentration, Compound Used Alone: Tryptic Soy Broth
Method: as §4, §5, §1, §2, §3

[4] = test system: Trichophyton mentagrophytes; conditions: 28° C.; for Minimum Inhibitory Concentration, Compound Used Alone: Tryptic Soy Broth
Method: as §4, §5, §1, §2, §3

[5] = test system: Penicillin pinophilium; conditions: 28° C.; for Minimum Inhibitory Concentration, Compound Used Alone: Tryptic Soy Broth
Method: as §4, §5, §1, §2, §3

[6] = test system: Pseudomonas oleovorans; conditions: 28° C.; for Minimum Inhibitory Concentration, Compound Used Alone: Tryptic Soy Broth
Method: as §4, §5, §1, §2, §3

[7] = test system: Cephalosporium sp.; conditions: 28° C.; for Minimum Inhibitory Concentration, Compound Used Alone: Tryptic Soy Broth
Method: as §4, §5, §1, §2, §3

[8] = test system: Pseudomonas rubescens; conditions: 28° C.; for Minimum Inhibitory Concentration, Compound Used Alone: Tryptic Soy Broth
Method: as §4, §5, §1, §2, §3

[9] = test system: Candida albicans; conditions: 28° C.; for Minimum Inhibitory Concentration, Compound Used Alone: Tryptic Soy Broth
Method: as §4, §5, §1, §2, §3

[10] = test system: Pseudomonas fluorescens; conditions: 28° C.; for Minimum Inhibitory Concentration, Compound Used Alone: Tryptic Soy Broth
Method: as §4, §5, §1, §2, §3

[11] = test system: Citrobacter freundii; conditions: 28° C.; for Minimum Inhibitory Concentration, Compound Used Alone: Tryptic Soy Broth
Method: as §4, §5, §1, §2, §3

[12] = test system: Pseudomonas aeruginosa; conditions: 28° C.; for Minimum Inhibitory Concentration, Compound Used Alone: Tryptic Soy Broth
Method: as §4, §5, §1, §2, §3

[13] = test system: Aureobasidium pullulans; conditions: 28° C.; for Minimum Inhibitory Concentration, Compound Used Alone: Tryptic Soy Broth
Method: as §4, §5, §1, §2, §3

[14] = test system: Chaetomium globosium; conditions: 28° C.; for Minimum Inhibitory Concentration, Compound Used Alone: Tryptic Soy Broth
Method: as §4, §5, §1, §2, §3

[15] = test system: Alcaligens faecalis; conditions: 28° C.; for Minimum Inhibitory Concentration, Compound Used Alone: Tryptic Soy Broth
Method: as §4, §5, §1, §2, §3

[16] = test system: Proteus mirabilis; conditions: 28° C.; for Minimum Inhibitory Concentration, Compound Used Alone: Tryptic Soy Broth
Method: as §4, §5, §1, §2, §3

[17] = test system: Pseudomonas Stutzeri; conditions: 28° C.; for Minimum Inhibitory Concentration, Compound Used Alone: Tryptic Soy Broth
Method: as §4, §5, §1, §2, §3

[18] = test system: Gliocladium virens; conditions: 28° C.; for Minimum Inhibitory Concentration, Compound Used Alone: Tryptic Soy Broth
Method: as §4, §5, §1, §2, §3

[19] = Table 1, concentration of the component in SP+PB mixture, SP/PB ratio 1, 6-7 days
[20] = Table 1, 6-7 days, PB sulfate 7610 units/mg
[21] = Table 2, 7 days, PB sulfate 7730 units/mg
[22] = Table 2, concentration of the component in ZP+PB mixture, ZP/PB ratio 1/8-1, 7 days
[23] = Table 2, concentration of the component in ZP+PB mixture, ZP/PB ratio 1/32-1/8, 7 days
[24] = Table 1, concentration of the component in SP+PB mixture, SP/PB ratio 1/20-1/10, 6-7 days
[25] = Table 1, 3 days, PB sulfate 7610 units/mg
[26] = Table 1, concentration of the component in SP+PB mixture, SP/PB ratio 650, 3 days
[27] = Table 2, 6 days, PB sulfate 7730 units/mg

## Polymyxin B sulfate [PB]
[1]; [19]
  Minimum Inhibitory Concentration, Mixture: 32.0 ppm
[1]; Table 2, alone, Tryptic Soy Broth, 7 days, PB sulfate 7730 units/mg
  Minimum Inhibitory Concentration, Compound Used Alone: 106.7 ppm
[2]; [20]
  Minimum Inhibitory Concentration, Compound Used Alone: 128.0 ppm
[2]; [19]
  Minimum Inhibitory Concentration, Mixture: 32.0 ppm
[2]; [21]
  Minimum Inhibitory Concentration, Compound Used Alone: 85.3 ppm
[2]; [22]
  Minimum Inhibitory Concentration, Mixture: 37.3 ppm
[3]; [20]
  Minimum Inhibitory Concentration, Compound Used Alone: 1536.0 ppm
[3]; Table 1, concentration of the component in SP+PB mixture, SP/PB ratio 1/10, 6-7 days
  Minimum Inhibitory Concentration, Mixture: 256.0 ppm
[3]; [21]
  Minimum Inhibitory Concentration, Compound Used Alone: 1024.0 ppm
[3]; [23]
  Minimum Inhibitory Concentration, Mixture: 298.7 ppm
[4]; [20]
  Minimum Inhibitory Concentration, Compound Used Alone: 32.0 ppm
[4]; Table 1, concentration of the component in SP+PB mixture, SP/PB ratio 1/10-1/3, 6-7 days
  Minimum Inhibitory Concentration, Mixture: 26.7 ppm
[4]; [21]
  Minimum Inhibitory Concentration, Compound Used Alone: 53.0 ppm
[4]; Table 2, concentration of the component in ZP+PB mixture, ZP/PB ratio 1/4-1/2, 7 days
  Minimum Inhibitory Concentration, Mixture: 26.7 ppm
[5]; [20]
  Minimum Inhibitory Concentration, Compound Used Alone: 256.0 ppm
[5]; [24]
  Minimum Inhibitory Concentration, Mixture: 48.0 ppm
[5]; [21]
  Minimum Inhibitory Concentration, Compound Used Alone: 128.0 ppm
[5]; Table 2, concentration of the component in ZP+PB mixture, ZP/PB ratio 1/8, 7 days
  Minimum Inhibitory Concentration, Mixture: 32.0 ppm
[6]; [25]
  Minimum Inhibitory Concentration, Compound Used Alone: 0.3 ppm
[6]; [26]
  Minimum Inhibitory Concentration, Mixture: < 0.1 ppm
[6]; [27]
  Minimum Inhibitory Concentration, Compound Used Alone: 0.5 ppm
[6]; Table 2, concentration of the component in ZP+PB mixture, ZP/PB ratio 16-32, 6 days
  Minimum Inhibitory Concentration, Mixture: 0.2 ppm
[7]; [20]
  Minimum Inhibitory Concentration, Compound Used Alone: 256.0 ppm
[7]; [19]
  Minimum Inhibitory Concentration, Mixture: 12.0 ppm
[7]; [21]
  Minimum Inhibitory Concentration, Compound Used Alone: 170.7 ppm
[7]; Table 2, concentration of the component in ZP+PB mixture, ZP/PB ratio 1/16-1/8, 7 days
  Minimum Inhibitory Concentration, Mixture: 42.7 ppm
[8]; [25]
  Minimum Inhibitory Concentration, Compound Used Alone: < 0.1 ppm
[8]; [26]
  Minimum Inhibitory Concentration, Mixture: < 0.1 ppm
[8]; [27]
  Minimum Inhibitory Concentration, Compound Used Alone: < 0.1 ppm
[8]; Table 2, concentration of the component in ZP+PB mixture, ZP/PB ratio 256, 6 days
  Minimum Inhibitory Concentration, Mixture: < 0.1 ppm
[9]; [20]
  Minimum Inhibitory Concentration, Compound Used Alone: 256.0 ppm
[9]; [24]
  Minimum Inhibitory Concentration, Mixture: 64.0 ppm
[9]; [21]
  Minimum Inhibitory Concentration, Compound Used Alone: 341.3 ppm
[9]; [23]
  Minimum Inhibitory Concentration, Mixture: 74.7 ppm
[10]; [25]
  Minimum Inhibitory Concentration, Compound Used Alone: 10.7 ppm
[10]; Table 1, concentration of the component in SP+PB mixture, SP/PB ratio 3-10, 3 days
  Minimum Inhibitory Concentration, Mixture: 1.2 ppm
[10]; [27]
  Minimum Inhibitory Concentration, Compound Used Alone: 6.7 ppm
[10]; Table 2, concentration of the component in ZP+PB mixture, ZP/PB ratio 8-16, 6 days
  Minimum Inhibitory Concentration, Mixture: 0.4 ppm
[11]; [25]
  Minimum Inhibitory Concentration, Compound Used Alone: 0.5 ppm
[11]; Table 1, concentration of the component in SP+PB mixture, SP/PB ratio 41-81, 3 days
  Minimum Inhibitory Concentration, Mixture: 0.1 ppm
[11]; [27]
  Minimum Inhibitory Concentration, Compound Used Alone: 0.4 ppm
[11]; Table 2, concentration of the component in ZP+PB mixture, ZP/PB ratio 16-64, 6 days
  Minimum Inhibitory Concentration, Mixture: 0.1 ppm
[12]; [25]
  Minimum Inhibitory Concentration, Compound Used Alone: 0.7 ppm
[12]; Table 1, concentration of the component in SP+PB mixture, SP/PB ratio 163-325, 3 days
  Minimum Inhibitory Concentration, Mixture: 0.3 ppm
[12]; [27]
  Minimum Inhibitory Concentration, Compound Used Alone: 1.0 ppm
[12]; Table 2, concentration of the component in ZP+PB mixture, ZP/PB ratio 128-256, 6 days
  Minimum Inhibitory Concentration, Mixture: 0.5 ppm
[13]; [20]
  Minimum Inhibitory Concentration, Compound Used Alone: 256.0 ppm
[13]; [24]
  Minimum Inhibitory Concentration, Mixture: 48.0 ppm
[13]; [21]
  Minimum Inhibitory Concentration, Compound Used Alone: 288.0 ppm
[13]; Table 2, concentration of the component in ZP+PB mixture, ZP/PB ratio 1/32-1/16, 7 days
  Minimum Inhibitory Concentration, Mixture: 80.0 ppm
[14]; [20]
  Minimum Inhibitory Concentration, Compound Used Alone: 24.0 ppm
[14]; Table 1, concentration of the component in SP+PB mixture, SP/PB ratio 1/10-1/5, 6-7 days
  Minimum Inhibitory Concentration, Mixture: 16.0 ppm
[14]; [21]
  Minimum Inhibitory Concentration, Compound Used Alone: 85.3 ppm
[14]; [22]
  Minimum Inhibitory Concentration, Mixture: 37.3 ppm
[15]; [25]
  Minimum Inhibitory Concentration, Compound Used Alone: 1.4 ppm
[15]; Table 1, concentration of the component in SP+PB mixture, SP/PB ratio 5-41, 3 days
  Minimum Inhibitory Concentration, Mixture: 0.5 ppm
[15]; [27]
  Minimum Inhibitory Concentration, Compound Used Alone: 3.3 ppm
[15]; Table 2, concentration of the component in ZP+PB mixture, ZP/PB ratio 8-32, 6 days
  Minimum Inhibitory Concentration, Mixture: 0.6 ppm
[16]; [25]
  Minimum Inhibitory Concentration, Compound Used Alone: > 2048.0 ppm
[16]; Table 1, concentration of the component in SP+PB mixture, SP/PB ratio 1/20-1, 3 days
  Minimum Inhibitory Concentration, Mixture: 288.0 ppm
[16]; [27]
  Minimum Inhibitory Concentration, Compound Used Alone: > 2048.0 ppm
[16]; Table 2, concentration of the component in ZP+PB mixture, ZP/PB ratio 1/32, 6 days
  Minimum Inhibitory Concentration, Mixture: 64.0 ppm
[17]; [25]
  Minimum Inhibitory Concentration, Compound Used Alone: 0.3 ppm
[17]; Table 1, concentration of the component in SP+PB mixture, SP/PB ratio 325-650, 3 days
  Minimum Inhibitory Concentration, Mixture: 0.1 ppm
[17]; [27]
  Minimum Inhibitory Concentration, Compound Used Alone: 0.3 ppm
[17]; Table 2, concentration of the component in ZP+PB mixture, ZP/PB ratio 16-128, 6 days
  Minimum Inhibitory Concentration, Mixture: < 0.1 ppm
[18]; [20]
  Minimum Inhibitory Concentration, Compound Used Alone: 74.7 ppm
[18]; Table 1, concentration of the component in SP+PB mixture, SP/PB ratio 1/10-1, 6-7 days
  Minimum Inhibitory Concentration, Mixture: 21.3 ppm
[18]; [21]
  Minimum Inhibitory Concentration, Compound Used Alone: 64.0 ppm
[18]; Table 2, concentration of the component in ZP+PB mixture, ZP/PB ratio 1-2, 7 days
  Minimum Inhibitory Concentration, Mixture: 20.0 ppm
